The values below are quoted from earlier work in PMC8602434 (Drugs in R&D, 2021).

In general, t½ refers to the time needed for the level to fall by half in the phase considered. The term Cmax denotes the peak of the concentration-time curve.

In data set [1] the test system is MC1R. The following applies: read-out: half maximal effective concentration (EC50); cited from earlier work.
For data set [2] the following is noted: sc administration; cited from earlier work.
For data set [3] the following is noted: sc, dose of 33 µmol/kg; cited from earlier work.

Regarding “α-melanocyte-stimulating hormone [α-MSH]”, the EC50 in data set [1] is 0.22 nM.

For bremelanotide, in data set [2], the tmax is 0.5 to 1.0 h and the t½ is 1.9 to 2.7 h.

For `CCCC(=O)C1(c2ccccc2)CCN(C(=O)[C@@H](Cc2ccc(OC)cc2)NC(=O)[C@@H](N)Cc2cncn2C)CC1` [BMS-470539], in data set [3], the Cmax is 11 µM.
